Patent publication US20070128217A1 (priority 2003, published 2007)

What was measured:
[1] = test system: antibodies in sera from SARS patients (sera 1a, 1b, 2, 6, 37, 62, London, SARS-yellow, SARS-green); type: binding, human; set-up: Binding of serum 6 to linear peptides of protein X1 of SARS-CoV Urbani / Binding of serum 37 to linear peptides of protein X1 of SARS-CoV Urbani / Binding of serum 6 to looped/cyclic peptide (PEPSCAN-ELISA) / Binding of serum 37 to looped/cyclic peptide (PEPSCAN-ELISA) / Binding of serum 37 to looped/cyclic peptides of protein X1 of SARS-CoV Urbani / Binding of serum 6 to linear peptides of protein X2 / Binding of serum 37 to linear peptides of protein X2 / Binding of serum 37 to looped/cyclic peptides of protein X2 of SARS-CoV Urbani / Binding of serum 6 to linear peptides of protein M of SARS-CoV Urbani / Binding of serum 37 to linear peptides of protein M of SARS-CoV Urbani / Binding of serum 6 to looped/cyclic peptides of protein M of SARS-CoV Urbani / Binding of serum 37 to looped/cyclic peptides of protein M of SARS-CoV Urbani / Binding of serum 6 to linear peptides of protein X3 of SARS-CoV Urbani / Binding of serum 37 to linear peptides of protein X3 of SARS-CoV Urbani / Binding of serum 37 to looped/cyclic peptides of protein X3 of SARS-CoV Urbani / Binding of serum 6 to linear peptides of protein X4 of SARS-CoV Urbani / Binding of serum 37 to linear peptides of protein X4 of SARS-CoV Urbani / Binding of serum 37 to looped/cyclic peptides of protein X4 of SARS-CoV Urbani / Binding of serum 6 to linear peptides of protein X5 of SARS-CoV Urbani / Binding of serum 37 to linear peptides of protein X5 of SARS-CoV Urbani / Binding of serum 37 to looped/cyclic peptides of protein X5 of SARS-CoV Urbani / Binding of serum 6 to linear peptides of protein N of SARS-CoV Urbani / Binding of serum 37 to linear peptides of protein N of SARS-CoV Urbani / Binding of serum 6 to linear peptide (PEPSCAN-ELISA) / Binding of serum 1a to looped/cyclic peptides of protein N of SARS-CoV Urbani / Binding of serum 1b to looped/cyclic peptides of protein N of SARS-CoV Urbani / Binding of serum 2 to looped/cyclic peptides of protein N of SARS-CoV Urbani / Binding of serum 6 to looped/cyclic peptides of protein N of SARS-CoV Urbani / Binding of serum 37 to looped/cyclic peptides of protein N of SARS-CoV Urbani / Binding of serum 62 to looped/cyclic peptides of protein N of SARS-CoV Urbani / Binding of serum London to looped/cyclic peptides of protein N of SARS-CoV Urbani / Binding of serum SARS-green to looped/cyclic peptides of protein N of SARS-CoV Urbani: unit not given here
[2] = test system: control sera (pooled serum of ten healthy LUMC hospital workers; commercial negative donor pooled serum from the Dutch bloodbank); type: binding, human; set-up: Binding of Control serum LUMC to linear peptides / Binding of Control serum Blood-bank to linear peptides / Binding of Control serum LUMC to looped peptides / Binding of Control Serum Blood-Bank to Looped peptides / Binding of Control serum LUMC to linear peptides of the protein M of SARS-CoV Urbani / Binding of Control serum Blood-bank to linear peptides of the protein M of SARS-CoV Urbani / Binding of Control serum LUMC to looped peptides of the protein M of SARS-CoV Urbani / Binding of Control Serum Blood-Bank to Looped peptides of the protein M of SARS-CoV Urbani: unit not given here
[3] = test system: rabbit serum obtained by immunizing a rabbit with the SARS-CoV strain Frankfurt 1; type: binding; set-up: Binding of a rabbit serum to linear peptides / Binding of a rabbit serum to looped peptides / Rabbit serum linear peptides / Rabbit serum looped peptides / Binding of a rabbit serum to linear peptides of protein N of SARS-CoV Urbani (Rabbit serum linear peptides) / Binding of a rabbit serum to looped/cyclic peptides of protein N of SARS-CoV Urbani (Rabbit serum looped peptides): unit not given here

For LLWPVTLACFVLAAV, the “Binding of serum 1a to linear peptides of protein M of SARS-CoV Urbani” value [1] was 0.7, the “Binding of serum 1a to looped/cyclic peptides of protein M of SARS-CoV Urbani” value [1] was 0.9 and the “Binding of serum 1b to linear peptides of protein M of SARS-CoV Urbani” value [1] was 0.5. For the same sequence, the “Binding of serum 1b to looped/cyclic peptides of protein M of SARS-CoV Urbani” value [1] was 0.5, the “Binding of serum 2 to linear peptides of protein M of SARS-CoV Urbani” value [1] was 0.6 and the “Binding of serum 2 to looped/cyclic peptides of protein M of SARS-CoV Urbani” value [1] was 0.9. The “Binding of serum 6 to linear peptides of protein M of SARS-CoV Urbani” value [1] was 0.4, the “Binding of serum 6 to looped/cyclic peptides of protein M of SARS-CoV Urbani” value [1] was 0.6 and the “Binding of serum 37 to linear peptides of protein M of SARS-CoV Urbani” value [1] was 0.5. The “Binding of serum 37 to looped/cyclic peptides of protein M of SARS-CoV Urbani” value [1] was 0.8, the “Binding of serum 62 to linear peptides of protein M of SARS-CoV Urbani” value [1] was 0.5 and the “Binding of serum 62 to looped/cyclic peptides of protein M of SARS-CoV Urbani” value [1] was 0.8. The “Binding of serum London to linear peptides of protein M of SARS-CoV Urbani” value [1] was 0.3, the “Binding of serum London to looped/cyclic peptides of protein M of SARS-CoV Urbani” value [1] was 0.3 and the “Binding of serum SARS-green to linear peptides of protein M of SARS-CoV Urbani” value [1] was 0.5. For the same sequence, the “Binding of serum SARS-green to looped/cyclic peptides of protein M of SARS-CoV Urbani” value [1] was 0.4, the “Binding of serum SARS-yellow to linear peptides of protein M of SARS-CoV Urbani” value [1] was 0.1 and the “Binding of serum SARS-yellow to looped/cyclic peptides of protein M of SARS-CoV Urbani” value [1] was 0.9. The “Binding of Control Serum Blood-Bank to Looped peptides of the protein M of SARS-CoV Urbani” value [2] was 0.6, the “Binding of Control serum Blood-bank to linear peptides of the protein M of SARS-CoV Urbani” value [2] was 0.7 and the “Binding of Control serum LUMC to linear peptides of the protein M of SARS-CoV Urbani” value [2] was 0.7. The “Binding of Control serum LUMC to looped peptides of the protein M of SARS-CoV Urbani” value [2] was 0.7, the “Rabbit serum linear peptides” value [3] was 0.2 and the “Rabbit serum looped peptides” value [3] was 0.3.
For LAWIMLLQFAYSNRN, the “Binding of serum 1a to linear peptides of protein M of SARS-CoV Urbani” value [1] was 0.6, the “Binding of serum 1a to looped/cyclic peptides of protein M of SARS-CoV Urbani” value [1] was 0.7 and the “Binding of serum 1b to linear peptides of protein M of SARS-CoV Urbani” value [1] was 0.5. For the same sequence, the “Binding of serum 1b to looped/cyclic peptides of protein M of SARS-CoV Urbani” value [1] was 0.7, the “Binding of serum 2 to linear peptides of protein M of SARS-CoV Urbani” value [1] was 0.4 and the “Binding of serum 2 to looped/cyclic peptides of protein M of SARS-CoV Urbani” value [1] was 0.4. The “Binding of serum 6 to linear peptides of protein M of SARS-CoV Urbani” value [1] was 0.2, the “Binding of serum 6 to looped/cyclic peptides of protein M of SARS-CoV Urbani” value [1] was 0.7 and the “Binding of serum 37 to linear peptides of protein M of SARS-CoV Urbani” value [1] was 0.7. The “Binding of serum 37 to looped/cyclic peptides of protein M of SARS-CoV Urbani” value [1] was 0.6, the “Binding of serum 62 to linear peptides of protein M of SARS-CoV Urbani” value [1] was 0.7 and the “Binding of serum 62 to looped/cyclic peptides of protein M of SARS-CoV Urbani” value [1] was 0.6. For the same sequence, the “Binding of serum London to linear peptides of protein M of SARS-CoV Urbani” value [1] was 0.2, the “Binding of serum London to looped/cyclic peptides of protein M of SARS-CoV Urbani” value [1] was 0.2 and the “Binding of serum SARS-green to linear peptides of protein M of SARS-CoV Urbani” value [1] was 0.3. For the same sequence, the “Binding of serum SARS-green to looped/cyclic peptides of protein M of SARS-CoV Urbani” value [1] was 0.4, the “Binding of serum SARS-yellow to linear peptides of protein M of SARS-CoV Urbani” value [1] was 0.0 and the “Binding of serum SARS-yellow to looped/cyclic peptides of protein M of SARS-CoV Urbani” value [1] was 0.3. The “Binding of Control Serum Blood-Bank to Looped peptides of the protein M of SARS-CoV Urbani” value [2] was 0.6, the “Binding of Control serum Blood-bank to linear peptides of the protein M of SARS-CoV Urbani” value [2] was 0.6 and the “Binding of Control serum LUMC to linear peptides of the protein M of SARS-CoV Urbani” value [2] was 0.2. For the same sequence, the “Binding of Control serum LUMC to looped peptides of the protein M of SARS-CoV Urbani” value [2] was 0.6, the “Rabbit serum linear peptides” value [3] was 0.8 and the “Rabbit serum looped peptides” value [3] was 0.1.
